Reference: patent EP1289557B1, “CANCER TREATMENT COMPOSITION CONTAINING AN ANTI-NEOPLASTIC AGENT AND A PDE4 INHIBITOR” (GLAXO GROUP LIMITED, priority 2000, dated 2001)

Key:
A549 (lung) = assay: Tumor cell growth (sulforhodamine B) after chemoprotectant regimen and paclitaxel; format: cell-based, human; conditions: forskolin (100 µM) plus PDE4 inhibitor (1 µM), then paclitaxel (100 nM); cell line not completely inhibited by paclitaxel
Description: (§1) The human tumor cell lines HT-29 (colon: ATCC# HTB 38), RKO (colon, ATCC# HTB 130), lines A549 (lung, ATCC# CCL 185), and MDA468 (breast, ATCC# HTB 132) were obtained from the American Type Culture Collection and maintained in DMEM containing 10% FBS. Tumor cells were grown at 37°C in a humidified atmosphere of 5% CO2. Adherent tumor cells were seeded into 96 well plates and incubated for six hours to allow for attachment. After six hours the chemoprotectants forskolin (100 µM) plus rolipram (1 µM) or forskolin (100 µM) plus Ariflo™ (1µM) were added. After overnight incubation, paclitaxel (100 nM) was added for 24 hours. Cells were then washed free of chemoprotectants and paclitaxel, placed in fresh media, and grown for 5 days. Growth was measured daily using sulforhodamine B (Skehan P. et. al., (1990), J. Nat'l Cancer Inst 82:1107-12). The results are depicted in Figure 8.

RKO (colon) = assay: as above; format: cell-based, human; conditions: forskolin (100 µM) plus PDE4 inhibitor (1 µM), then paclitaxel (100 nM) 24 hours; versus DMSO pretreatment
Description: as §1

HT-29 (colon) = assay: as above; format: cell-based, human; conditions: forskolin (100 µM) plus PDE4 inhibitor (1 µM), then paclitaxel (100 nM) 24 hours; versus DMSO pretreatment
Description: as §1

[1] = system: expanded CD34^+ stem cells; assay: Flow cytometric (FACS) evaluation of percent live cells after chemoprotectant pretreatment and paclitaxel; format: cell-based, Human; conditions: pretreatment rolipram (1µM) plus Forskolin (100 µM) 24 hours
Description: Prevention of myelosuppression was shown by protection of neutrophil progenitors by PDE4 inhibitors from the cytotoxic effects of cancer chemotherapeutic agents. In Examples 2-7 a variety of chemically distinct PDE4 inhibitors were tested for their ability to protect neutrophil progenitors. Three methods, more completely described in the following examples, were utilized for a determination of cell survival and ability to produce daughter cells of primary human neutrophil progenitors: (1) a FACS assay which determined the percent of live cells by size and granularity; (2) a colony forming assay which measured the number of CFU-GM progenitors (a specific early stage neutrophil progenitor); and (3) a cell-based EUSA which measured CD15 antigen the value of which was proportional to the number of neutrophil lineage cells. This assay allows evaluation of neutrophil progenitors (cells that can divide and produce daughter neutrophil-lineage cells) at multiple stages of differentiation.
Human bone marrow samples were collected from presumed healthy human donors following informed consent through an agreement with Duke University Medical Center, Durham, North Carolina. Mononuclear cells were isolated using a 1.077 Ficoll-Paque gradient according to the published procedure (Dornsife, RE et al., Antimicrob Agents Chemother, 35: 322-328, (1991)) and were suspended in HBSS with 2% FBS at a concentration of 5 X 10^7 cells/ml. CD34^+ stem cells were isolated by "StemSep™ CD34^+ stem cell selection kit" by following the instructions from the manufacturer (Stem Cell Technologies). Cells were adjusted to 1 x 10^6 cells/ml in complete growth media and maintained in a humidified, 5% CO2 incubator. The complete growth media was IMDM supplemented with 20% FBS, 1% penicillin-streptomycin antibiotics, the recombinant human cytokines (Biosource)Flt-3/Flk-2 ligand (50 ng/ml), stem cell factor (50 ng/ml), interleukin-3 (40ng/ml), and G-CSF (10 ng/ml). The cells were maintained at a density of between 0.5 and 3 x 10^5 cells/ml. The CD34+ stem cells were expanded in culture over an average range of 11 to 23 days. Five groups of expanded CD34+ cells were treated with rolipram (1µM), plus Forskolin (100 µM), an adenylate cyclase activator, for 24 hours and five groups of expanded CD34+ cells were treated with DMSO for 24 hours. After 24 hours, to the 5 sets of cells that were treated with DMSO and 5 groups of cells treated with rolipram plus forskolin, paclitaxel was added to give final concentrations of 0, 30, 100, 300, and 600 nM of paclitaxel respectively and incubated for an additional 24 hours. After the 48 hours of treatment, the cells were counted, washed and re-suspended in PBS with 2% FBS. […] The prepared cells were analyzed on a BD FACSort flow cytometer. […]

[2] = Cell based assays utilized herein, PDE4 inhibitor used alone; conditions: without forskolin

| SMILES | effect of chemoprotectant regimen on inhibition of tumour cell growth by paclitaxel (A549 (lung)) | effect of chemoprotectant regimen on inhibition of tumour cell growth by paclitaxel (RKO (colon)) | effect of chemoprotectant regimen on inhibition of tumour cell growth by paclitaxel (HT-29 (colon)) | surviving cell fractions ([1]; then paclitaxel 30nM 24 hours, DMSO pretreatment gave 45%) [%] | surviving cell fractions ([1]; then paclitaxel 100nM 24 hours, DMSO pretreatment gave 27%) [%] | surviving cell fractions ([1]; then paclitaxel 300nM 24 hours, DMSO pretreatment gave 23%) [%] | surviving cell fractions ([1]; then paclitaxel 600nM 24 hours, DMSO pretreatment gave 18%) [%] | protective effect when used alone [2] |
| --- | --- | --- | --- | --- | --- | --- | --- | --- |
| COc1ccc([C@]2(C#N)CC[C@@H](C(=O)O)CC2)cc1OC1CCCC1 [Ariflo™, cis-4-cyano-4-[3-(cyclopentyloxy)-4-methoxyphenyl]cyclohexane-1-carboxylic acid] | no additional protection | no effect on the inhibition of tumour cell growth | no effect on the inhibition of tumour cell growth |  |  |  |  |  |
| COc1ccc(C2CNC(=O)C2)cc1OC1CCCC1 (centres unmarked) [Rolipram, rolipram] | no additional protection | no effect on the inhibition of tumour cell growth | no effect on the inhibition of tumour cell growth | 86 | 81 | 63 | 59 | little protective effect |
